According to ChEMBL document CHEMBL1141712, “Kinase array design, back to front: biaryl amides” (Bioorg Med Chem Lett, 2008):
Blank lines part the entries; values can stand above or below the molecule they belong to.

Key:
[1] = target: Mitogen-activated protein kinase 14 (Homo sapiens, UniProt Q16539); test: Displacement of fluorescent ATP competitive ligand from p38alpha
[2] = target: Dual specificity mitogen-activated protein kinase kinase 1 (Homo sapiens, UniProt Q02750); test: Inhibition of MEK1 by cRaf/mek/Erk cascade assay
[3] = target: Cyclin-dependent kinase 2 (Homo sapiens, UniProt P24941); test: Inhibition of CDK2
[4] = target: Macrophage colony-stimulating factor 1 receptor (Homo sapiens, UniProt P07333); test: Inhibition of cFMS
[5] = target: Mitogen-activated protein kinase 10 (Homo sapiens, UniProt P53779); test: Inhibition of JNK3
Chain of Mitogen-activated protein kinase 10 (P53779 whole entry): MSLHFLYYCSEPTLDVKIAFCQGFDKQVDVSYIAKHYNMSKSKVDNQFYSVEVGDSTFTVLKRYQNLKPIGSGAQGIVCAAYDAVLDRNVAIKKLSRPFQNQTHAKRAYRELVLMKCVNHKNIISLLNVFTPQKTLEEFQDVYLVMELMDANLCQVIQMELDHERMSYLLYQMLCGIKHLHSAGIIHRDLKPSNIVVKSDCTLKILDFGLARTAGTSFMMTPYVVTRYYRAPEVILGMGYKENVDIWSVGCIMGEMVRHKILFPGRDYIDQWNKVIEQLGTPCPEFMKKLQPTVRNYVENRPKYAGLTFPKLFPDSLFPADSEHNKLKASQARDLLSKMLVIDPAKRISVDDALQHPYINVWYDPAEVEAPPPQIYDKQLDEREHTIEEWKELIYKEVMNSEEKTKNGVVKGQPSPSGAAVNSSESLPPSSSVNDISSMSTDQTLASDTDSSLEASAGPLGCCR

[6] = target: Serine/threonine-protein kinase PLK1 (Homo sapiens, UniProt P53350); test: Inhibition of PLK1
Chain of Serine/threonine-protein kinase PLK1 (P53350 whole entry): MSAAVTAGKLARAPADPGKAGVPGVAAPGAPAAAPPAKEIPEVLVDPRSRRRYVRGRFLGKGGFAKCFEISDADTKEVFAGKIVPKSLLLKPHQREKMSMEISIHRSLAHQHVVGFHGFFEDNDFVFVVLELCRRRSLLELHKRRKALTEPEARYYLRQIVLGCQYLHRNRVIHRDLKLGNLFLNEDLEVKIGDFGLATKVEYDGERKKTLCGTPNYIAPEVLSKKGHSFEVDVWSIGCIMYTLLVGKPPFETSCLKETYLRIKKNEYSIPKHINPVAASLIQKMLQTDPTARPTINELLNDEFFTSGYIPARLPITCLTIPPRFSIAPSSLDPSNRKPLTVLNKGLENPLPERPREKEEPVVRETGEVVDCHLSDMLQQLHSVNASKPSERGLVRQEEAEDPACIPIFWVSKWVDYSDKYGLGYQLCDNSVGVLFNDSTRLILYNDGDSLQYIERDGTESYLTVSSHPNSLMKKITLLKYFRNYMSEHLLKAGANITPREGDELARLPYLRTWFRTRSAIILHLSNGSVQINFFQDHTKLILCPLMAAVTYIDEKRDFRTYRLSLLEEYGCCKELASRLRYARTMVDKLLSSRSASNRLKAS

[7] = target: T1, Serine/threonine-protein kinase Sgk1 (Homo sapiens, UniProt O00141); test: Inhibition of SGK1
T1 sequence (O00141 whole entry): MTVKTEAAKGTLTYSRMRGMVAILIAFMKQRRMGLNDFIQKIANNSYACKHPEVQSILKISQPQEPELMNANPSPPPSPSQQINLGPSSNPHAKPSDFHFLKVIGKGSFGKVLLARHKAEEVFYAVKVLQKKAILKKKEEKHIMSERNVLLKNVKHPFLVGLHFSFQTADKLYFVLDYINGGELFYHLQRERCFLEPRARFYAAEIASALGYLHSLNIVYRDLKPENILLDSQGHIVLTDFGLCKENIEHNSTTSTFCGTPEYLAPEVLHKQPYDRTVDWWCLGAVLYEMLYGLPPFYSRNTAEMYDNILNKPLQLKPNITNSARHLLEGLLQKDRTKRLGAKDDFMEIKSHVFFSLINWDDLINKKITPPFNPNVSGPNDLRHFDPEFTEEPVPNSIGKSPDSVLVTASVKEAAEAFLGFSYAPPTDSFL

[8] = target: Vascular endothelial growth factor receptor 2 (Homo sapiens, UniProt P35968); test: Inhibition of VEGFR2
Chain of Vascular endothelial growth factor receptor 2 (P35968 whole entry): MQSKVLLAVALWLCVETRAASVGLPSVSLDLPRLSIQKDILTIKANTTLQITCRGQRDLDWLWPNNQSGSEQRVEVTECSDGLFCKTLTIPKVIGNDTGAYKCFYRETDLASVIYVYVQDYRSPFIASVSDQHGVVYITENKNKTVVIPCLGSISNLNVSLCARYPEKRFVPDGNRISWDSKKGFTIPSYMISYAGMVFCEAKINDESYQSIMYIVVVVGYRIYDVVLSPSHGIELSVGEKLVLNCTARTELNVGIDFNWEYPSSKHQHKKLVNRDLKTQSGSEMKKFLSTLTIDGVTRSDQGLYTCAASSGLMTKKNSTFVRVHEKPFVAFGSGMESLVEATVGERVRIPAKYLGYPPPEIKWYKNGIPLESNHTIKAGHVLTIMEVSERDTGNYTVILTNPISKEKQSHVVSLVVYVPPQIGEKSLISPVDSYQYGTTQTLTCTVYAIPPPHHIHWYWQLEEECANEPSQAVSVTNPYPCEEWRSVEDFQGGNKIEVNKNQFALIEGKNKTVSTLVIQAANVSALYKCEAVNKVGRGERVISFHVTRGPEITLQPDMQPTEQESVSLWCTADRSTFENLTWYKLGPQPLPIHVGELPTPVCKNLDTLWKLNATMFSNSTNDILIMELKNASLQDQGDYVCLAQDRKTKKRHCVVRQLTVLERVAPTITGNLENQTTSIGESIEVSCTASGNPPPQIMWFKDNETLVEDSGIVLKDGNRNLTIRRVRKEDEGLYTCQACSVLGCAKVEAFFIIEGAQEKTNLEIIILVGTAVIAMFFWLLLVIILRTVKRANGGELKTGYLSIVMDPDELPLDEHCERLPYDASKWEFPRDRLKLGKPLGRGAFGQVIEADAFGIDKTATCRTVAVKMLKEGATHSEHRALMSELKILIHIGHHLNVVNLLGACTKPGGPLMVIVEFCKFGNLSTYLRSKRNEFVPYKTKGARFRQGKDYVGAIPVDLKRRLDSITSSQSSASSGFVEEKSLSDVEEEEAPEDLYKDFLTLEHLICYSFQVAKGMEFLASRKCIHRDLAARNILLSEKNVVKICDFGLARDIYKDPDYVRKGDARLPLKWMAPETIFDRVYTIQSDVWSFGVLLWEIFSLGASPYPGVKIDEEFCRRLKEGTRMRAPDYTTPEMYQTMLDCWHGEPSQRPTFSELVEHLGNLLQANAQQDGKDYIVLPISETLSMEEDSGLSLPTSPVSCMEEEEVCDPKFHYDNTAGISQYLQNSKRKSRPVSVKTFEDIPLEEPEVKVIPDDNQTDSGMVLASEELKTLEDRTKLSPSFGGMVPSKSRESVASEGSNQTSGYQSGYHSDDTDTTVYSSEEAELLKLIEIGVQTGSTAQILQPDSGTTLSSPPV

Blood = test: Inhibition of LPS-stimulated TNFalpha release in human whole blood; assay type: functional, tissue-based
PBMC = test: Inhibition of LPS-stimulated TNFalpha release in human PBMCs; assay type: functional, cell-based
[9] = target: Tyrosine-protein kinase Lck (Homo sapiens, UniProt P06239)
[10] = target: Receptor tyrosine-protein kinase erbB-4 (Homo sapiens, UniProt Q15303); test: Inhibition of ErbB4
Chain of Receptor tyrosine-protein kinase erbB-4 (Q15303 whole entry): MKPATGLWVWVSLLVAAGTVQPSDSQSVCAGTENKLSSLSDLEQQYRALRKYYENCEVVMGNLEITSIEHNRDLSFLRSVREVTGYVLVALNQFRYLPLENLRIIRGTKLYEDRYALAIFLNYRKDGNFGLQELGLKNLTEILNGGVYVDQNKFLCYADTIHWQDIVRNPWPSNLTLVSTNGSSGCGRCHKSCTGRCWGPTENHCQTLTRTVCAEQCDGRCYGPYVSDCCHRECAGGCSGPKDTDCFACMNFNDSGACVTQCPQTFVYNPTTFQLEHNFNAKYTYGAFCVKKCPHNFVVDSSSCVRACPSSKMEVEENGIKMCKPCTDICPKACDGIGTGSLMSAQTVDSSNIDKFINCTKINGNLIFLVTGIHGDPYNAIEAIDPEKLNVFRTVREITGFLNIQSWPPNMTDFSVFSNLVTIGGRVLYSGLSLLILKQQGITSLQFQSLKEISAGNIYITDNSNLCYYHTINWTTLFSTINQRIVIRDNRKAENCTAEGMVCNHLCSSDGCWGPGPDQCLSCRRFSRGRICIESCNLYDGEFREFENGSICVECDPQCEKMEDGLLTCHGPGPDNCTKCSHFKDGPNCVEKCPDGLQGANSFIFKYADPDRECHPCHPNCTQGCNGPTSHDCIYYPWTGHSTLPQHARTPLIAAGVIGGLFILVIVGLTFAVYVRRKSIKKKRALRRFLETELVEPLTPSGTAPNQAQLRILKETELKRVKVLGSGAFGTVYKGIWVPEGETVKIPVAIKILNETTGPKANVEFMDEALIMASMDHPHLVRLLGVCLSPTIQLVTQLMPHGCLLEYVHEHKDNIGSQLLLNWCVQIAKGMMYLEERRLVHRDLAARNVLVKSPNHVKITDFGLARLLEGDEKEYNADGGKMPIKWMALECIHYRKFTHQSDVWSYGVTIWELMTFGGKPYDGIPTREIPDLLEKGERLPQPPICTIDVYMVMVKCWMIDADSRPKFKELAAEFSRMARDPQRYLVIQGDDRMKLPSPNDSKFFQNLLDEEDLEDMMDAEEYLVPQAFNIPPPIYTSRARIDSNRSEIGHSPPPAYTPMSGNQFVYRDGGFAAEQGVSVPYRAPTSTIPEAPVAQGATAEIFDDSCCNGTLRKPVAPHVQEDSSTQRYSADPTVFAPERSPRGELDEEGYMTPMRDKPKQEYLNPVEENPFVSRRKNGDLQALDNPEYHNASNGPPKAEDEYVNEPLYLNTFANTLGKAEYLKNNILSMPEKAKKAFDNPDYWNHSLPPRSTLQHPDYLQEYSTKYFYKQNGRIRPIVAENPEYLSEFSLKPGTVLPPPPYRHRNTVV

[11] = target: Epidermal growth factor receptor (Homo sapiens, UniProt P00533)
Chain of Epidermal growth factor receptor (P00533 whole entry): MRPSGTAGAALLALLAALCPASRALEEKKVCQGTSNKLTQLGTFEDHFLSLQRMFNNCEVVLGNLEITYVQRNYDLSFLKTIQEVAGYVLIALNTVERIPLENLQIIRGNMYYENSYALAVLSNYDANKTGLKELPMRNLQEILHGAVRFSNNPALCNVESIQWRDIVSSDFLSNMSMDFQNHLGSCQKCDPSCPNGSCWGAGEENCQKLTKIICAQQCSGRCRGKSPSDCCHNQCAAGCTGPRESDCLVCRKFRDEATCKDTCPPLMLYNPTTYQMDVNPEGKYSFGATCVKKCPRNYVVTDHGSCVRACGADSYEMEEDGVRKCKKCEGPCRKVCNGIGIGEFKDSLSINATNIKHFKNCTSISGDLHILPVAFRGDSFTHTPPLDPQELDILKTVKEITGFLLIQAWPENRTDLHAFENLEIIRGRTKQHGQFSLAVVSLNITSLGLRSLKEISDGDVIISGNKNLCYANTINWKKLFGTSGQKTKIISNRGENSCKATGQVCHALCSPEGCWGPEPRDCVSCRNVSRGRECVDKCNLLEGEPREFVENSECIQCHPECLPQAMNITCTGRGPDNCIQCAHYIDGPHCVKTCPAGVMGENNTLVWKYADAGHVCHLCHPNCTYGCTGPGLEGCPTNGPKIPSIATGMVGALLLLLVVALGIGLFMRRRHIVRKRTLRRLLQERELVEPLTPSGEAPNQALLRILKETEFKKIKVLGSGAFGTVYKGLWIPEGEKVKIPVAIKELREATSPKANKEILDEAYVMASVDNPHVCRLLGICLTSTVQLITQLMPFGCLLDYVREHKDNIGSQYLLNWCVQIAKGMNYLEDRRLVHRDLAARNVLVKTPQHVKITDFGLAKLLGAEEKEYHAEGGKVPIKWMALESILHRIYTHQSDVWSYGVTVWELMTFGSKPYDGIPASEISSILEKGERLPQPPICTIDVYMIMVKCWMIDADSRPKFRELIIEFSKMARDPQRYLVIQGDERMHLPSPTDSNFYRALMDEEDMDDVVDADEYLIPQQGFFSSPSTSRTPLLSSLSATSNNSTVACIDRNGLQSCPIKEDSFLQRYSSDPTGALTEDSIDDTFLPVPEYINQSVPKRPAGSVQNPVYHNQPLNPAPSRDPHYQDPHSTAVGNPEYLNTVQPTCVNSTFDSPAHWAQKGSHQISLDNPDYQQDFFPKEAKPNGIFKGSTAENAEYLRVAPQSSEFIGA

SMILES: Cc1ccc(C(=O)Nc2cccc(N3CCOCC3)c2)cc1-c1ccc2c(C3CCNCC3)noc2c1
IC50 [2]: 40 nM | IC50 [3]: > 20000 nM | IC50 [4]: > 20000 nM | IC50 [5]: > 16000 nM | IC50 [6]: > 25000 nM | IC50 [7]: > 33000 nM | IC50 [8]: > 20000 nM

SMILES: Cc1ccc(NC(=O)c2ccnc(N3CCCC3)c2)cc1-c1ccc2c(C3CCNCC3)noc2c1
IC50 (Blood): 5000 nM | Ki [1]: 0.8 nM | IC50 [2]: 30 nM | IC50 [3]: > 20000 nM | IC50 [4]: 7000 nM | IC50 [5]: > 16000 nM | IC50 [6]: > 25000 nM | IC50 [7]: > 33000 nM | IC50 [8]: > 20000 nM | IC50 (PBMC): 60 nM | IC50 [9]: 6000 nM

SMILES: Cc1ccc(NC(=O)c2ccc(CN3CCN(C)CC3)cc2)cc1-c1ccc(-c2csc(N)n2)cc1
Ki [1]: > 850 nM | IC50 [3]: > 20000 nM | IC50 [4]: 90 nM | IC50 [10]: > 25000 nM | IC50 [5]: > 16000 nM | IC50 [6]: > 25000 nM | IC50 [7]: > 33000 nM | IC50 [8]: > 20000 nM | IC50 [11]: > 25000 nM | IC50 [9]: 2000 nM

SMILES: Cc1ccc(C(=O)Nc2cccc(N3CCOCC3)c2)cc1-c1ccc2nc(N)[nH]c(=O)c2c1
Ki [1]: 4.7 nM

SMILES: Cc1ccc(C(=O)NC2CC2)cc1-c1ccc2nc(N)[nH]c(=O)c2c1
Ki [1]: 49 nM

SMILES: Cc1ccc(C(=O)NC2CC2)cc1-c1ccc2cccnc2c1
Ki [1]: 490 nM

SMILES: Cc1ccc(C(=O)NC2CC2)cc1-c1ccc2c(=O)cc(-c3cccs3)oc2c1
Ki [1]: 6.7 nM

SMILES: Cc1ccc(C(=O)Nc2cccc(N3CCOCC3)c2)cc1-c1ccc2[nH]c(=O)ccc2c1
Ki [1]: 290 nM

SMILES: CCCCn1c(=O)[nH]c2cc(-c3cc(NC(=O)c4ccnc(N5CCCC5)c4)ccc3C)ccc2c1=O
Ki [1]: 11 nM

SMILES: Cc1nnc(-c2ccc(-c3cc(NC(=O)c4ccc(CN5CCN(C)CC5)cc4)ccc3C)c(C)c2)o1
Ki [1]: 1400 nM | IC50 [3]: > 20000 nM | IC50 [4]: 100 nM | IC50 [10]: > 25000 nM | IC50 [5]: > 16000 nM | IC50 [6]: > 25000 nM | IC50 [7]: > 33000 nM | IC50 [8]: > 20000 nM | IC50 [11]: > 25000 nM | IC50 [9]: 3000 nM

SMILES: Cc1ccc(NC(=O)c2ccc(CN3CCN(C)CC3)cc2)cc1-c1ccc2c(N)noc2c1
Ki [1]: > 850 nM | IC50 [3]: > 20000 nM | IC50 [4]: 90 nM | IC50 [10]: > 25000 nM | IC50 [5]: > 16000 nM | IC50 [6]: > 25000 nM | IC50 [7]: > 33000 nM | IC50 [8]: > 20000 nM | IC50 [11]: > 25000 nM | IC50 [9]: 1000 nM

SMILES: Cc1ccc(C(=O)Nc2cccc(N3CCOCC3)c2)cc1-c1ccc2ccncc2c1
Ki [1]: 4.5 nM

SMILES: Cc1ccc(C(=O)NC2CC2)cc1-c1ccc2c(C3CCNCC3)noc2c1
IC50 (Blood): 3000 nM | Ki [1]: 4 nM | IC50 [2]: > 50000 nM | IC50 [3]: > 20000 nM | IC50 [4]: > 20000 nM | IC50 [10]: > 25000 nM | IC50 [6]: > 25000 nM | IC50 [7]: > 33000 nM | IC50 [8]: > 20000 nM | IC50 (PBMC): 200 nM | IC50 [11]: > 25000 nM

SMILES: CCCCn1c(=O)[nH]c2cc(-c3cc(C(=O)NC4CC4)ccc3C)ccc2c1=O
Ki [1]: 18 nM

Now from value to molecule, other results behind:

Ki [1]: 14 nM
SMILES: CC(=O)Nc1cc(-c2ccc(-c3cc(NC(=O)c4ccnc(N5CCCC5)c4)ccc3C)cc2)[nH]n1

IC50 (Blood): 700 nM | Ki [1]: 1.7 nM | IC50 [2]: 200 nM | IC50 [3]: > 20000 nM | IC50 [4]: > 20000 nM | IC50 [5]: > 16000 nM | IC50 [6]: > 25000 nM | IC50 [7]: > 33000 nM | IC50 [8]: > 20000 nM | IC50 [9]: 10000 nM
SMILES: Cc1nnc(-c2ccc(-c3cc(NC(=O)c4ccnc(N5CCCC5)c4)ccc3C)c(C)c2)o1
IC50 (PBMC): 100 nM

Ki [1]: 380 nM
SMILES: Cc1ccc(C(=O)Nc2cccc(N3CCOCC3)c2)cc1-c1ccc2onc(C)c2c1

Ki [1]: 49 nM
SMILES: Cc1ccc(NC(=O)c2ccnc(N3CCCC3)c2)cc1-c1ccc2[nH]c(=O)ccc2c1

Ki [1]: 110 nM
SMILES: Cc1ccc(C(=O)Nc2cccc(N3CCOCC3)c2)cc1-c1ccc2[nH]ncc2c1

Ki [1]: 98 nM
SMILES: Cc1nc(-c2ccc(-c3cc(C(=O)NC4CC4)ccc3C)cc2)no1

Ki [1]: 17 nM
SMILES: Cc1nc(-c2ccc(-c3cc(C(=O)Nc4cccc(N5CCOCC5)c4)ccc3C)cc2)no1

Ki [1]: > 2500 nM
SMILES: Cc1ccc(NC(=O)c2ccc(CN3CCN(C)CC3)cc2)cc1-c1ccc2cccnc2c1

Ki [1]: > 850 nM
SMILES: Cc1nc(-c2ccc(-c3cc(NC(=O)c4ccc(CN5CCN(C)CC5)cc4)ccc3C)cc2)no1

Ki [1]: 12 nM
SMILES: Cc1ccc(NC(=O)c2ccnc(N3CCCC3)c2)cc1-c1ccc2c(N)noc2c1
